Results on one compound are retold here after patent US9987208B2, “Elastin synthesis/regeneration promoting agent” (NISHIZAKI BIOINFORMATION RESEARCH INSTITUTE, priority 2013, dated 2018).

Experiment [1] addresses α7 nicotinic acetylcholine receptor (Homo sapiens, UniProt P36544). Particulars: α7 nicotinic acetylcholine receptor expressed in glutamatergic presynaptic cell as target; cited from earlier work.
Experiment [2] deals with normal human skin fibroblast. In words: Immunocytological measurement of elastin fiber in fibroblasts with or without SNP. As to conditions: DCP-LA 100 nM, FIG. 1. The experiment is classed as cell-based. Here is the method: (§1) Normal human fibroblast was purchased from Lonza (Verviers, Belgium). The cells were cultured in FGM™-2 BulletKit™ (Lonza) at 5% CO2 and 95% air under wet atmosphere at 37° C.
In the presence or absence of DCP-LA (100 nM), normal human skin fibroblasts were treated with sodium nitroprusside (SNP) (1 mM). Then, the cells were fixed with methanol at −20° C. for 30 min, and blocked with 2% (w/v) bovine serum albumin-containing phosphate buffered saline (PBS) at room temperature. The cells were reacted with an anti-elastin antibody (1:100) (Millipore, Temecula, Calif., USA) at 4° C. overnight, and then reacted with an Alexa488-conjugated goat anti-mouse IgG antibody (Molecular Probes, Eugene, Oreg., USA) at room temperature for 1 hr. After staining with 4′,6-diamidino-2-phenylindole (DAPI), the fluorescence-labeled cells were visualized with a confocal scanning laser microscope (Axiovert/LSM510; Carl Zeiss, Oberkochen, Germany). The fluorescence signal intensity of the elastin fiber was analyzed using ImageJ (Bethesda, Md., USA). The intensity of the elastin fiber was standardized by the intensity of DAPI.

The next experiment addresses T1, PKC-ε (Homo sapiens, UniProt Q02156).
T1 sequence (Q02156 1-737): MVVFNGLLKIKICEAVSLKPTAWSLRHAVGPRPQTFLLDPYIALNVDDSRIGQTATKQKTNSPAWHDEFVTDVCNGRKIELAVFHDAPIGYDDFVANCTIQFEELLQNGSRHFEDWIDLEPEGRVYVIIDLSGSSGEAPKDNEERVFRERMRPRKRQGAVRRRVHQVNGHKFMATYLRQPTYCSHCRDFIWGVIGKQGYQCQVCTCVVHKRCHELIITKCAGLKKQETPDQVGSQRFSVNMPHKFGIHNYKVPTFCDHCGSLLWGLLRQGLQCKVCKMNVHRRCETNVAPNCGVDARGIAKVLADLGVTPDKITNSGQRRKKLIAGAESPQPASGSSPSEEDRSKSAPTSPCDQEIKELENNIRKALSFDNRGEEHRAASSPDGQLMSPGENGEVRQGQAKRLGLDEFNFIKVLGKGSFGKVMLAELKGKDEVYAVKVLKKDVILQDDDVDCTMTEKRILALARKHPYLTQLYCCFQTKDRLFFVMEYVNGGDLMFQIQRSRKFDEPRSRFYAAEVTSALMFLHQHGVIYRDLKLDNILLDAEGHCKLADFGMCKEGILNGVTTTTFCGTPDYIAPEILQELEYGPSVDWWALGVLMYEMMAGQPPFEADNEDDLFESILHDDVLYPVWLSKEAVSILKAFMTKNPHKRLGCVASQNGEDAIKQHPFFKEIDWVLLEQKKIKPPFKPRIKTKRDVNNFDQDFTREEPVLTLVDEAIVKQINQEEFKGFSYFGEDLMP
As to conditions: cited from earlier work.

The subject of another experiment is fibrin-5. In words: Western blotting of fibrin-5 secreted into culture medium. The experiment is classed as cell-based, human. As to conditions: DCP-LA 100 nM, 0-24 hr, FIG. 3. How it is done: as §1
The cultured normal human skin fibroblast was treated with DCP-LA (100 nM) for 0-24 hr, and the culture medium was recovered. After precipitation with 5% (w/v) trichloroacetic acid, protein was separated by sodium dodecyl sulfate-polyacrylamide electrophoresis (SDS-PAGE) using TGX gel (BioRad, Hercules, Calif., USA) and transferred on a polyvinylidene difluoride membrane. The blotting membrane was blocked with TBS-T [150 mM NaCl, 0.1% (v/v) Tween20 and 20 mM Tris, pH 7.5] containing 5% (w/v) BSA, and reacted with anti-fibrin-5 antibody (Sigma, St Louis, Mo., USA). After washing, the membrane was reacted with horseradish peroxidase-conjugated goat anti-rabbit IgG antibody. The immune reactivity was detected by ECL kit (GE Healthcare, Piscataway, N.J., USA), and visualized using a chemiluminescence detection system (GE Healthcare). The protein concentration of each sample was measured using a BCA protein assay kit (Thermo Fisher Scientific, Waltham, Mass., USA).

The test system of a further experiment is nerve cell. Particulars: cited from earlier work.
For the next experiment, the system named is hippocampus nerve cells. As to conditions: cited from earlier work.
The test system of a further experiment is HR-1 hairless mice. The experiment can be described thus: Immunohistological measurement of elastin fiber in UV-irradiated mouse back skin. The experiment is classed as in vivo. As to conditions: DCP-LA 1 mg/ml in PEG applied to back skin once per day, UV for 2 weeks, FIG. 2. Here is the method:
Male HR-1 hairless mice (7- to 8-week-old) were purchased from Japan SLC. Inc. (Shizuoka, Japan). The mice were reared in a chamber at controlled temperature in a cycle of 12 hr light conditions/12 hr dark conditions.
The mice were transferred to a special cage provided with a UV light on the roof and reared therein. UV light was continuously irradiated on the back skin at a distance of 12 cm for the whole 2 weeks.
During UV irradiation, DCP-LA (1 mg/ml) diluted with polyethylene glycol (PEG) was applied to the skin of the back of the mouse once per day.
The mice were sacrificed, a skin block was mounted on OTC (optimal cutting temperature compound), and cut out in about 10 μm thickness by a cryostat. A section was blocked with 5% (v/v) goat serum in PBS-Triton X-100 for 1 hr. Then, the section was incubated with an anti-elastin mouse monoclonal antibody (1:2000) (Millipore), which is the primary antibody, at 4° C. overnight, and then incubated with a goat anti-mouse IgG antibody (1:500) (Invitrogen, Carlsbad, Calif., USA) which is the secondary antibody, for 1 hr at room temperature. After staining with DAPI, the section was visualized with a confocal scanning laser microscope (Axiovert/LSM510; Carl Zeiss). The fluorescence signal intensity of the elastin fiber was quantified by NIH image. The intensity of the elastin fiber was standardized by the intensity of DAPI.

Experiment [3] relates to amyloid β peptide or scopolamine-treated rat. As to conditions: cited from earlier work.
The test system of experiment [4] is senescence accelerated mouse. As to conditions: cited from earlier work.

Chain of α7 nicotinic acetylcholine receptor (P36544 23-502): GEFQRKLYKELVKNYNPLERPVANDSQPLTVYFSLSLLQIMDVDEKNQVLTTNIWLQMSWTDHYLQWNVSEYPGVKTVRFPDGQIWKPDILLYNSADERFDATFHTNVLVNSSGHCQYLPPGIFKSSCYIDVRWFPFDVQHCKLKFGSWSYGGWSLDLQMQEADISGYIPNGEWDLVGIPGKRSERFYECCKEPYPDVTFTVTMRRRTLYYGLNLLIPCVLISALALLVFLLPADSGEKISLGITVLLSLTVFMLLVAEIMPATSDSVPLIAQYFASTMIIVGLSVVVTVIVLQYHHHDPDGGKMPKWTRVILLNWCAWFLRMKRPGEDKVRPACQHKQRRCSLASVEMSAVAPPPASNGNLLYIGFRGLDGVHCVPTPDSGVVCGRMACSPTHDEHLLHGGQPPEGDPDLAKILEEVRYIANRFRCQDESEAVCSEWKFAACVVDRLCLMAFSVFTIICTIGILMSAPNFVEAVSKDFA

`CCCCCC1CC1CC1CC1CCCCCCCC(=O)O` (stereo not shown) [DCP-LA, 8-[2-(2-Pentyl-cyclopropylmethyl)-cyclopropyl]-octanoic acid]: the hippocampal synaptic transmission result in experiment [1] is on record as “promotes hippocampal synaptic transmission”. For the same compound, the “regeneration against elastin degeneration induced by NO stress (relative density of elastin fiber relative to DAPI)” value in experiment [2] (SNP 1 mM for 12 hr) was “promote regeneration against elastin degeneration induced by NO stress”. Also, in [2] (untreated with SNP), the “elastin synthesis (relative density of elastin fiber relative to the DAPI density)” value was “promote elastin synthesis”. On PKC-ε, the PKC-ε activation result was “activates PKC-ε selectively and directly”. The “secretion amount of fibrin-5” value in the experiment on fibrin-5 is reported as “increased the secretion amount of fibrin-5”. In the experiment on nerve cell, the “nerve cell death induced by oxidative stress” value is given as “suppress nerve cell death induced by oxidative stress”. The “release of γ aminobutyric acid” value in the experiment with hippocampus nerve cells is “increases release of γ aminobutyric acid from hippocampus nerve cells”. Besides, the “protection against elastin disorder caused by UV irradiation (relative density of elastin fiber relative to DAPI)” value in the experiment with HR-1 hairless mice was “protecting action against elastin disorder (elastin deterioration) caused by UV irradiation”. The cognitive dysfunction result in [3] is recorded as “improves cognitive dysfunction of amyloid β peptide or scopolamine-treated rat”; in experiment [4], “improves cognitive dysfunction of senescence accelerated mouse”.
